Where a SMILES comes first, the peptide text is derived from it. Bridges are numbered along the chain shown (N, C = ends). [ ]: non-standard residue; d: D form. The star is where a group is joined. Val(Nα-amidino) = CC(C)[C@H](NC(=N)N)C(=O)*; dDab(iPr) = CC(C)NCC[C@@H](N)C(=O)O; Dab(iPr) = CC(C)NCC[C@H](N)C(=O)O; Hyp = O=C(O)[C@@H]1C[C@@H](O)CN1; Agb = N=C(N)NCC[C@H](N)C(=O)O; Pen = CC(C)(S)[C@H](N)C(=O)O; X1 = CC[C@H](NC(=N)N)C(=O)*; dDab = NCC[C@@H](N)C(=O)O; Orn = NCCC[C@H](N)C(=O)O; Dab = NCC[C@H](N)C(=O)O
Columns and labels:
Assay type in all cases: cell-based
[1] = tested on: Klebsiella pneumoniae SSI3010; details: SSI3010
Procedure, shortened: (§1)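 CLSI broth microdilution, slightly modified: cation-adjusted Mueller-Hinton II broth with about 5×10^5 CFU/mL from a 0.5 McFarland suspension, and two-fold serial peptide dilutions with Polysorbate 80 at 0.002% final. MIC (μg/mL) was the lowest concentration with no visible growth after 18-20 hours at 35° C.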

[2] = tested on: Escherichia coli ATCC 25922; details: ATCC 25922
Procedure, shortened: as §1

[3] = tested on: Escherichia coli MCR-1 Af 45; details: MCR-1 Af 45
Procedure, shortened: as §1

[4] = tested on: human red blood cells (hRBC); details: red cells of human, 1 h, 200 μg/mL
Procedure, shortened: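 Percent hemolysis derived from OD540 of supernatants relative to full lysis by 2.5% Triton X-100 (PBS baseline). Washed fresh human erythrocytes (20% v/v) were exposed to 200 μg/mL peptide for 1 h at 37 °C with shaking.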

Structure (SMILES)	Klebsiella pneumoniae SSI3010 MIC [1]	Escherichia coli ATCC 25922 MIC [2]	Escherichia coli MCR-1 Af45 MIC [3]	Hemolysis at 0.2 g/L [4]
CC[C@H](C)[C@H](NC(=O)[C@@H]1C[C@@H](O)CN1C(=O)[C@@H](NC(=N)N)C(C)C)C(=O)N[C@@H]1C(=O)N[C@@H](Cc2ccc(O)cc2)C(=O)N[C@@H](CO)C(=O)N[C@@H](CC(N)=O)C(=O)N[C@@H](CCCNC(=N)N)C(=O)N[C@@H](CCNC(C)C)C(=O)N[C@@H]([C@@H](C)O)C(=O)N[C@H](CCN)C(=O)N[C@@H](CCCCN)C(=O)N[C@@H](CCNC(C)C)C(=O)N[C@@H](CCN)C(=O)N[C@H](C(=O)N[C@@H](Cc2ccc(O)cc2)C(=O)O)CSSC1(C)C [Example 70, Gua-Val-Hyp-Ile-Pen-Tyr-Ser-Asn-Arg-Da b(iPr)-Thr-^DDab-Lys-Dab(iPr)-Dab-Cys-Tyr] ({Val(Nα-amidino)}-[Hyp]I[Pen]YSNR[Dab(iPr)]T[dDab]K[Dab(iPr)][Dab]CY-OH; disulfide 3-14)	0.25 µg/mL	0.125 µg/mL	0.0625 µg/mL	<1%
CC[C@H](C)[C@H](NC(=O)[C@@H]1C[C@@H](O)CN1C(=O)[C@@H](NC(=N)N)C(C)C)C(=O)N[C@@H]1C(=O)N[C@@H](Cc2ccc(O)cc2)C(=O)N[C@@H](CO)C(=O)N[C@@H](CC(N)=O)C(=O)N[C@@H](CCCNC(=N)N)C(=O)N[C@@H](CCN)C(=O)N[C@@H]([C@@H](C)O)C(=O)N[C@H](CCN)C(=O)N[C@@H](CCCCN)C(=O)N[C@@H](CCN)C(=O)N[C@@H](CCNC(=N)N)C(=O)N[C@H](C(=O)N[C@@H](Cc2ccc(O)cc2)C(=O)O)CSSC1(C)C [Example 75, Gua-Val-Hyp-Ile-Pen-Tyr-Ser-Asn-Arg-Dab-Thr-^DDab-Lys-Dab-Agb-Cys-Tyr] ({Val(Nα-amidino)}-[Hyp]I[Pen]YSNR[Dab]T[dDab]K[Dab][Agb]CY-OH; disulfide 3-14)	0.125 µg/mL	0.125 µg/mL	0.0625 µg/mL	<1%
CC[C@H](NC(=N)N)C(=O)N1C[C@H](O)C[C@H]1C(=O)N[C@H](C(=O)N[C@@H]1C(=O)N[C@@H](Cc2ccc(O)cc2)C(=O)N[C@@H](CO)C(=O)N[C@@H](CC(N)=O)C(=O)N[C@@H](CCCNC(=N)N)C(=O)N[C@@H](CCN)C(=O)N[C@@H]([C@@H](C)O)C(=O)N[C@H](CCN)C(=O)N[C@@H](CCCCN)C(=O)N[C@@H](CCN)C(=O)N[C@@H](CCN)C(=O)N[C@H](C(=O)N[C@@H](Cc2ccc(O)cc2)C(=O)O)CSSC1(C)C)[C@@H](C)CC [Example 76, Gua-Abu-Hyp-Ile-Pen-Tyr-Ser-Asn-Arg-Dab-Thr-^DDab-Lys-Dab-Dab-Cys-Tyr] (X1-[Hyp]I[Pen]YSNR[Dab]T[dDab]K[Dab][Dab]CY-OH; disulfide 3-14)	0.25 µg/mL	1 µg/mL	0.5 µg/mL	<1%
CC[C@H](C)[C@H](NC(=O)[C@@H]1C[C@@H](O)CN1C(=O)[C@@H](NC(=N)N)C(C)C)C(=O)N[C@@H]1C(=O)N[C@@H](Cc2ccc(O)cc2)C(=O)N[C@@H](CO)C(=O)N[C@@H](CC(N)=O)C(=O)N[C@@H](CCCNC(=N)N)C(=O)N[C@@H](CCN)C(=O)N[C@@H]([C@@H](C)O)C(=O)N[C@H](CCN)C(=O)N[C@@H](CCCCN)C(=O)N[C@@H](CCCN)C(=O)N[C@@H](CO)C(=O)N[C@H](C(=O)N[C@@H](Cc2ccc(O)cc2)C(=O)O)CSSC1(C)C [Example 77, Gua-Val-Hyp-Ile-Pen-Tyr-Ser-Asn-Arg-Dab-Thr-^DDab-Lys-Orn-Ser-Cys-Tyr] ({Val(Nα-amidino)}-[Hyp]I[Pen]YSNR[Dab]T[dDab]K[Orn]SCY-OH; disulfide 3-14)	0.25 µg/mL	0.25 µg/mL	0.5 µg/mL	<1%
CC[C@H](C)[C@H](NC(=O)[C@@H]1C[C@@H](O)CN1C(=O)[C@@H](N)C(C)C)C(=O)N[C@H]1CCNC(=O)CC[C@@H](C(=O)N[C@@H](Cc2ccc(O)cc2)C(=O)O)NC(=O)[C@H](CCN)NC(=O)[C@H](CCN)NC(=O)[C@H](CCCCN)NC(=O)[C@@H](CCN)NC(=O)[C@H]([C@@H](C)O)NC(=O)[C@H](CCN)NC(=O)[C@H](CCCNC(=N)N)NC(=O)[C@H](CC(N)=O)NC(=O)[C@H](CO)NC(=O)[C@H](Cc2ccc(O)cc2)NC1=O [Example 78, Val-Hyp-Ile-Dab-Tyr-Ser-Asn-Arg-Dab-Thr-^DDab-Lys-Dab-Dab-Glu-Tyr] (H-V[Hyp]I[Dab]YSNR[Dab]T[dDab]K[Dab][Dab]EY-OH; lactam 4-15)	0.25 µg/mL	0.125 µg/mL	0.125 µg/mL	<1%

Further lines, with some results ahead:

Klebsiella pneumoniae SSI3010 MIC [1]	Escherichia coli ATCC 25922 MIC [2]	Escherichia coli MCR-1 Af45 MIC [3]	Structure (SMILES)	Hemolysis at 0.2 g/L [4]
0.0625 µg/mL	0.0625 µg/mL	0.0625 µg/mL	CC[C@H](C)[C@H](NC(=O)[C@@H]1C[C@@H](O)CN1C(=O)[C@@H](NC(=N)N)C(C)C)C(=O)N[C@@H]1C(=O)N[C@@H](Cc2ccc(O)cc2)C(=O)N[C@@H](CCN)C(=O)N[C@@H](CC(N)=O)C(=O)N[C@@H](CCCNC(=N)N)C(=O)N[C@@H](CCN)C(=O)N[C@@H]([C@@H](C)O)C(=O)N[C@H](CCN)C(=O)N[C@@H](CCCCN)C(=O)N[C@@H](CO)C(=O)N[C@@H](CCN)C(=O)N[C@H](C(=O)N[C@@H](Cc2ccc(O)cc2)C(=O)O)CSSC1(C)C [Example 69, Gua-Val-Hyp-Ile-Pen-Tyr-Dab-Asn-Arg-Dab-Thr-^DDab-Lys-Ser-Dab-Cys-Tyr] ({Val(Nα-amidino)}-[Hyp]I[Pen]Y[Dab]NR[Dab]T[dDab]KS[Dab]CY-OH; disulfide 3-14)	<1%
0.125 µg/mL	0.0625 µg/mL	0.0625 µg/mL	CC[C@H](C)[C@H](NC(=O)[C@@H]1C[C@@H](O)CN1C(=O)[C@@H](NC(=N)N)C(C)C)C(=O)N[C@@H]1C(=O)N[C@@H](Cc2ccc(O)cc2)C(=O)N[C@@H](CO)C(=O)N[C@@H](CC(N)=O)C(=O)N[C@@H](CCCNC(=N)N)C(=O)N[C@@H](CCN)C(=O)N[C@@H]([C@@H](C)O)C(=O)N[C@H](CCNC(C)C)C(=O)N[C@@H](CCCCN)C(=O)N[C@@H](CCN)C(=O)N[C@@H](CCN)C(=O)N[C@H](C(=O)N[C@@H](Cc2ccc(O)cc2)C(=O)O)CSSC1(C)C [Example 71, Gua-Val-Hyp-Ile-Pen-Tyr-Ser-Asn-Arg-Dab-Thr-^DDab(iPr)-Lys-Dab-Dab-Cys-Tyr] ({Val(Nα-amidino)}-[Hyp]I[Pen]YSNR[Dab]T[dDab(iPr)]K[Dab][Dab]CY-OH; disulfide 3-14)	<1%
0.5 µg/mL	0.5 µg/mL	0.5 µg/mL	CC[C@H](C)[C@H](NC(=O)[C@@H]1C[C@@H](O)CN1C(=O)[C@@H](NC(=N)N)C(C)C)C(=O)N[C@@H]1C(=O)N[C@@H](Cc2ccc(O)cc2)C(=O)N[C@@H](CCN)C(=O)N[C@@H](CC(N)=O)C(=O)N[C@@H](CCCNC(=N)N)C(=O)N[C@@H](CCN)C(=O)N[C@@H]([C@@H](C)O)C(=O)N[C@H](CCN)C(=O)N[C@@H](CCCCN)C(=O)N[C@@H]([C@@H](C)O)C(=O)N[C@@H](Cc2ccc(O)cc2)C(=O)N[C@H](C(=O)N[C@@H](Cc2ccc(O)cc2)C(=O)O)CSSC1(C)C [Example 72, Gua-Val-Hyp-Ile-Pen-Tyr-Dab-Asn-Arg-Dab-Thr-^DDab-Lys-Thr-Tyr-Cys-Tyr] ({Val(Nα-amidino)}-[Hyp]I[Pen]Y[Dab]NR[Dab]T[dDab]KTYCY-OH; disulfide 3-14)	<1%
0.5 µg/mL	0.5 µg/mL	0.5 µg/mL	CC[C@H](C)[C@@H]1NC(=O)[C@H]([C@@H](C)O)NC(=O)[C@H](CCCCN)NC(=O)[C@@H](CCN)NC(=O)[C@H]([C@@H](C)O)NC(=O)[C@H](CCN)NC(=O)[C@H](CCCNC(=N)N)NC(=O)[C@H](CC(N)=O)NC(=O)[C@H](CCN)NC(=O)[C@H](Cc2ccc(O)cc2)NC(=O)[C@@H](NC(=O)[C@@H](NC(=O)[C@@H]2C[C@@H](O)CN2C(=O)[C@@H](NC(=N)N)C(C)C)[C@@H](C)CC)C(C)(C)SSC[C@@H](C(=O)N[C@@H](Cc2ccc(O)cc2)C(=O)O)NC1=O [Example 73, Gua-Val-Hyp-Ile-Pen-Tyr-Dab-Asn-Arg-Dab-Thr-^DDab-Lys-Thr-Ile-Cys-Tyr] ({Val(Nα-amidino)}-[Hyp]I[Pen]Y[Dab]NR[Dab]T[dDab]KTICY-OH; disulfide 3-14)	<1%
0.25 µg/mL	0.25 µg/mL	0.25 µg/mL	CC[C@H](C)[C@H](NC(=O)[C@@H]1C[C@@H](O)CN1C(=O)[C@@H](NC(=N)N)C(C)C)C(=O)N[C@@H]1C(=O)N[C@@H](Cc2ccc(O)cc2)C(=O)N[C@@H](CCN)C(=O)N[C@@H](CC(N)=O)C(=O)N[C@@H](CCCNC(=N)N)C(=O)N[C@@H](CCN)C(=O)N[C@@H]([C@@H](C)O)C(=O)N[C@H](CCN)C(=O)N[C@@H](CCCCN)C(=O)N[C@@H]([C@@H](C)O)C(=O)N[C@@H](CO)C(=O)N[C@H](C(=O)N[C@@H](Cc2ccc(O)cc2)C(=O)O)CSSC1(C)C [Example 74, Gua-Val-Hyp-Ile-Pen-Tyr-Dab-Asn-Arg-Dab-Thr-^DDab-Lys-Thr-Ser-Cys-Tyr] ({Val(Nα-amidino)}-[Hyp]I[Pen]Y[Dab]NR[Dab]T[dDab]KTSCY-OH; disulfide 3-14)	<1%

Reference: US20240336654A1, “ANTIMICROBIAL PEPTIDOMIMETICS” (SPEXIS AG, priority 2021, published 2024)
